The values that follow come from US10745382B2 (BRISTOL-MYERS SQUIBB COMPANY, priority 2015, dated 2020).

By IC50 is commonly meant the point on the concentration scale where inhibition reaches its midpoint.

T1 sequence (Q9NZQ7 with tags, fused parts or gaps): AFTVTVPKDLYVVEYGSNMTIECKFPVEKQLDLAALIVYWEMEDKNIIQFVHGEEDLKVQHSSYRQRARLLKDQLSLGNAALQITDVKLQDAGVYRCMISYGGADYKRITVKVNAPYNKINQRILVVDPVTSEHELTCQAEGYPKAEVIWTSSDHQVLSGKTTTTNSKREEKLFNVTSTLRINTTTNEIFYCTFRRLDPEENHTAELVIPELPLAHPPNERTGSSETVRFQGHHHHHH

The first assay has as its target T1, PD-1/PD-L1 (Homo sapiens, UniProt Q9NZQ7).
T1 construct: made in house; host or cells: HEK293T
Nature of the assay: PD-1/PD-L1 Homogenous Time-Resolved Fluorescence (HTRF) binding assay. Particulars: PD-L1-His 10 nM, PD-1-Ig 20 nM; numeric IC50; read-out: Range or IC50. Summed up: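 Binding measured in dPBS with 0.1% BSA and 0.05% Tween-20, detected by HTRF with europium cryptate anti-Ig (1 nM final) and APC anti-His (20 nM final) added over the binding reaction. Counter-assays used human PD-1-Ig/PD-L2-His (20 and 5 nM) and CD80-His/PD-L1-Ig (100 and 10 nM).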
In general terms: Time-resolved FRET reads energy transfer from a long-lived donor to a nearby acceptor.
Take `CCNC(=O)c1cccc(-c2cccc(COc3cc(OCc4cncc(C#N)c4)c(CNC(C)(CO)CO)cc3Cl)c2C)c1C` [Example 4010, 3′-((2-chloro-5-((5-cyanopyridin-3-yl)methoxy)-4-(((1,3-dihydroxy-2-methylpropan-2-yl)amino)methyl)phenoxy)methyl)-N-ethyl-2,2′-dimethyl-[1,1′-biphenyl]-3-carboxamide]: the half-maximal inhibitory concentration (IC50) amounted to 11 nM.

Still in this assay, the particulars now being: PD-L1-His 10 nM, PD-1-Ig 20 nM; value given as range class; read-out: Range or IC50.
Regarding `COC(=O)C1(C)CCCCN1Cc1cc(Cl)c(OCc2cccc(-c3cccc(OCCCN4CC[C@@H](O)C4)c3Cl)c2C)cc1OCc1cncc(C#N)c1` (stereo partly drawn) [Example 3070, methyl 1-(5-chloro-4-((2′-chloro-3′-(3-((R)-3-hydroxypyrrolidin-1-yl)propoxy)-2-methyl-[1,1′-biphenyl]-3-yl)methoxy)-2-((5-cyanopyridin-3-yl)methoxy)benzyl)-2-methylpiperidine-2-carboxylate], the IC50 lay within 0.21 to 10 nM.

`Cc1c(COc2ccc(CN3CCCC[C@H]3C(=O)O)cc2Cl)cccc1-c1cccc(OCCCN2CC[C@@H](O)C2)c1C` [Example 3072, (S)-1-(3-chloro-4-((3′-(3-((R)-3-hydroxypyrrolidin-1-yl)propoxy)-2,2′-dimethyl-[1,1′-biphenyl]-3-yl)methoxy)benzyl)piperidine-2-carboxylic Acid]: the IC50 lay in the range of 0.21 to 10 nM.

For the compound `Cc1c(COc2cc(OCc3cncc(C#N)c3)c(CN3CCCC[C@H]3C(=O)O)cc2Cl)cccc1-c1cccc(C(=O)N2CC2)c1C` [Example 4001, (S)-1-(4-((3′-(aziridine-1-carbonyl)-2,2′-dimethyl-[1,1′-biphenyl]-3-yl)methoxy)-5-chloro-2-((5-cyanopyridin-3-yl)methoxy)benzyl)piperidine-2-carboxylic Acid], the half-inhibitory concentration (IC50) fell in the range of 0.21 to 10 nM.

As for `Cc1c(COc2cc(OCc3cncc(C#N)c3)c(CN3CCCC[C@H]3C(=O)O)cc2Cl)cccc1-c1cccc(C(=O)NCCN2CCCC2)c1C` [Example 4002, (S)-1-(5-chloro-2-((5-cyanopyridin-3-yl)methoxy)-4-((2,2′-dimethyl-3′-((2-(pyrrolidin-1-yl)ethyl)carbamoyl)-[1,1′-biphenyl]-3-yl)methoxy)benzyl)piperidine-2-carboxylic Acid], the IC50 lay within 10 to 100 nM.

Consider `Cc1c(COc2cc(OCc3cncc(C#N)c3)c(CNC(CO)CO)cc2Cl)cccc1-c1cccc(C(=O)NCCN2CCCC2)c1C` [Example 4003, 3′-((2-chloro-5-((5-cyanopyridin-3-yl)methoxy)-4-(((1,3-dihydroxypropan-2-yl)amino)methyl)phenoxy)methyl)-2,2′-dimethyl-N-(2-(pyrrolidin-1-yl)ethyl)-[1,1′-biphenyl]-3-carboxamide], for which the IC50 is 0.21 to 10 nM.

Take `Cc1c(COc2cc(OCc3cncc(C#N)c3)c(CN3CCCC[C@H]3C(=O)O)cc2Cl)cccc1-c1cccc(C(=O)NCCN2CCS(=O)(=O)CC2)c1C` [Example 4004, (S)-1-(5-chloro-2-((5-cyanopyridin-3-yl)methoxy)-4-((3′-((2-(1,1-dioxidothiomorpholino)ethyl)carbamoyl)-2,2′-dimethyl-[1,1′-biphenyl]-3-yl)methoxy)benzyl)piperidine-2-carboxylic Acid]: the IC50 was in the range of 10 to 100 nM.

For `Cc1c(COc2cc(OCc3cncc(C#N)c3)c(CNC(CO)CO)cc2Cl)cccc1-c1cccc(C(=O)NCCN2CCS(=O)(=O)CC2)c1C` [Example 4005, 3′-((2-chloro-5-((5-cyanopyridin-3-yl)methoxy)-4-(((1,3-dihydroxypropan-2-yl)amino)methyl)phenoxy)methyl)-N-(2-(1,1-dioxidothiomorpholino)ethyl)-2,2′-dimethyl-[1,1′-biphenyl]-3-carboxamide], the half-maximal inhibitory concentration (IC50) is 0.21 to 10 nM.

`CCNC(=O)c1cccc(-c2cccc(COc3cc(OCc4cncc(C#N)c4)c(CN4CCCC[C@H]4C(=O)O)cc3Cl)c2C)c1C` [Example 4006, (S)-1-(5-chloro-2-((5-cyanopyridin-3-yl)methoxy)-4-((3′-(ethylcarbamoyl)-2,2′-dimethyl-[1,1′-biphenyl]-3-yl)methoxy)benzyl)piperidine-2-carboxylic Acid]: the IC50 lay in the range of 10 to 100 nM.

In the case of `CCNC(=O)c1cccc(-c2cccc(COc3cc(OCc4cncc(C#N)c4)c(CN4CCC[C@H]4C(=O)O)cc3Cl)c2C)c1C` [Example 4007, (5-chloro-2-((5-cyanopyridin-3-yl)methoxy)-4-((3′-(ethylcarbamoyl)-2,2′-dimethyl-[1,1′-biphenyl]-3-yl)methoxy)benzyl)-L-proline], the 50% inhibitory concentration (IC50) lay within 100 to 2000 nM.

`CCNC(=O)c1cccc(-c2cccc(COc3cc(OCc4cncc(C#N)c4)c(CN4C[C@H](O)C[C@H]4C(=O)O)cc3Cl)c2C)c1C` [Example 4008, (2S,4R)-1-(5-chloro-2-((5-cyanopyridin-3-yl)methoxy)-4-((3′-(ethylcarbamoyl)-2,2′-dimethyl-[1,1′-biphenyl]-3-yl)methoxy)benzyl)-4-hydroxypyrrolidine-2-carboxylic Acid]: the IC50 was 10 to 100 nM.

`CCNC(=O)c1cccc(-c2cccc(COc3cc(OCc4cncc(C#N)c4)c(CNC(CO)CO)cc3Cl)c2C)c1C` [Example 4009, 3′-((2-chloro-5-((5-cyanopyridin-3-yl)methoxy)-4-(((1,3-dihydroxypropan-2-yl)amino)methyl)phenoxy)methyl)-N-ethyl-2,2′-dimethyl-[1,1′-biphenyl]-3-carboxamide]: the IC50 is 10 to 100 nM.

As to `CNC(=O)c1cccc(-c2cccc(COc3cc(OCc4cncc(C#N)c4)c(CN4CCCC[C@H]4C(=O)O)cc3Cl)c2C)c1C` [Example 4011, (S)-1-(5-chloro-2-((5-cyanopyridin-3-yl)methoxy)-4-((2,2′-dimethyl-3′-(methylcarbamoyl)-[1,1′-biphenyl]-3-yl)methoxy)benzyl)piperidine-2-carboxylic Acid], the IC50 lay in the range of 10 to 100 nM.

Turning to `CNC(=O)c1cccc(-c2cccc(COc3cc(OCc4cncc(C#N)c4)c(CN4CCC[C@H]4C(=O)O)cc3Cl)c2C)c1C` [Example 4012, (5-chloro-2-((5-cyanopyridin-3-yl)methoxy)-4-((2,2′-dimethyl-3′-(methylcarbamoyl)-[1,1′-biphenyl]-3-yl)methoxy)benzyl)-L-proline], the IC50 was 10 to 100 nM.

Regarding `CNC(=O)c1cccc(-c2cccc(COc3cc(OCc4cncc(C#N)c4)c(CN4C[C@H](O)C[C@H]4C(=O)O)cc3Cl)c2C)c1C` [Example 4013, (2S,4R)-1-(5-chloro-2-((5-cyanopyridin-3-yl)methoxy)-4-((2,2′-dimethyl-3′-(methylcarbamoyl)-[1,1′-biphenyl]-3-yl)methoxy)benzyl)-4-hydroxypyrrolidine-2-carboxylic Acid], the IC50 is 10 to 100 nM.

On to `CNC(=O)c1cccc(-c2cccc(COc3cc(OCc4cncc(C#N)c4)c(CN4C[C@@H](O)C[C@H]4C(=O)O)cc3Cl)c2C)c1C` [Example 4014, (2S,4S)-1-(5-chloro-2-((5-cyanopyridin-3-yl)methoxy)-4-((2,2′-dimethyl-3′-(methylcarbamoyl)-[1,1′-biphenyl]-3-yl)methoxy)benzyl)-4-hydroxypyrrolidine-2-carboxylic Acid], for which the half-inhibitory concentration (IC50) is 2010 to 10000 nM.

With `CNC(=O)c1cccc(-c2cccc(COc3cc(OCc4cncc(C#N)c4)c(CNC(CO)CO)cc3Cl)c2C)c1C` [Example 4015, 3′-((2-chloro-5-((5-cyanopyridin-3-yl)methoxy)-4-(((1,3-dihydroxypropan-2-yl)amino)methyl)phenoxy)methyl)-N,2,2′-trimethyl-[1,1′-biphenyl]-3-carboxamide], the IC50 was in the range of 0.21 to 10 nM.

On to `CNC(=O)c1cccc(-c2cccc(COc3cc(OCc4cncc(C#N)c4)c(CNC(C)(CO)CO)cc3Cl)c2C)c1C` [Example 4016, 3′-((2-chloro-5-((5-cyanopyridin-3-yl)methoxy)-4-(((1,3-dihydroxy-2-methylpropan-2-yl)amino)methyl)phenoxy)methyl)-N,2,2′-trimethyl-[1,1′-biphenyl]-3-carboxamide], for which the IC50 fell in the range of 0.21 to 10 nM.

For `CCNC(=O)c1cccc(-c2cccc(COc3cc(OCc4cc(F)cc(F)c4)c(CN4CCCC[C@H]4C(=O)O)cc3Cl)c2C)c1C` [Example 4017, (S)-1-(5-chloro-2-((3,5-difluorobenzyl)oxy)-4-((3′-(ethylcarbamoyl)-2,2′-dimethyl-[1,1′-biphenyl]-3-yl)methoxy)benzyl)piperidine-2-carboxylic Acid], the IC50 is 100 to 2000 nM.

Regarding `CCNC(=O)c1cccc(-c2cccc(COc3cc(OCc4cc(F)cc(F)c4)c(CN4CCC[C@H]4C(=O)O)cc3Cl)c2C)c1C` [Example 4018, (5-chloro-2-((3,5-difluorobenzyl)oxy)-4-((3′-(ethylcarbamoyl)-2,2′-dimethyl-[1,1′-biphenyl]-3-yl)methoxy)benzyl)-L-proline], the IC50 lay within 100 to 2000 nM.

Turning to `CCNC(=O)c1cccc(-c2cccc(COc3cc(OCc4cc(F)cc(F)c4)c(CN4C[C@H](O)C[C@H]4C(=O)O)cc3Cl)c2C)c1C` [Example 4019, (2S,4R)-1-(5-chloro-2-((3,5-difluorobenzyl)oxy)-4-((3′-(ethylcarbamoyl)-2,2′-dimethyl-[1,1′-biphenyl]-3-yl)methoxy)benzyl)-4-hydroxypyrrolidine-2-carboxylic Acid], the IC50 fell in the range of 100 to 2000 nM.

As for `CCNC(=O)c1cccc(-c2cccc(COc3cc(OCc4cc(F)cc(F)c4)c(CN4CCOC[C@H]4C(=O)O)cc3Cl)c2C)c1C` [Example 4020, (S)-4-(5-chloro-2-((3,5-difluorobenzyl)oxy)-4-((3′-(ethylcarbamoyl)-2,2′-dimethyl-[1,1′-biphenyl]-3-yl)methoxy)benzyl)morpholine-3-carboxylic Acid], the IC50 lay in the range of 2010 to 10000 nM.

For the compound `CCNC(=O)c1cccc(-c2cccc(COc3cc(OCc4cc(F)cc(F)c4)c(CNC(CO)CO)cc3Cl)c2C)c1C` [Example 4021, 3′-((2-chloro-5-((3,5-difluorobenzyl)oxy)-4-(((1,3-dihydroxypropan-2-yl)amino)methyl)phenoxy)methyl)-N-ethyl-2,2′-dimethyl-[1,1′-biphenyl]-3-carboxamide], the IC50 lay within 100 to 2000 nM.
